Measured values taken from PMC5324278, “Novel synthetic analogues of avian β-defensin-12: the role of charge, hydrophobicity, and disulfide bridges in biological functions” (BMC Microbiology, 2017).
Where two headings read alike, the source gives them in different places. Bridge positions count the residues as written; N and C are the ends. Ends that are not written are not given here.

What was measured:
[1] = system: mouse immature dendritic JAWSII cells; experiment: Chemotaxis assay, 48-well microchemotaxis chamber; assay type: cell-based; conditions: peptide 64 μg/ml
Experimental: Migration of JAWSII and CCR2-CHO-K1 cells in response to AvBD-12 analogues was determined using a 48-well microchemotaxis chamber technique as previously described. Chemotaxis buffer (Minimum Essential Medium containing 0.1% BSA, 100U/ml penicillin, and 100 μg/ml streptomycin) and bacterial peptide N-Formyl-methionyl-leucyl-phenylalanine (fMLF, Sigma-Aldrich) were included as negative and positive controls, respectively. The results were presented as chemotactic index (C.I.). C.I. = number of migrated cells induced by AvBDs / number of migrated cells induced by chemotactic buffer. The assay was repeated five times.

[2] = system: Escherichia coli (ATCC 25922); assay type: cell-based; conditions: ATCC 25922, 2 h, 16 μg/ml
Experimental: (§1) Escherichia coli (ATCC 25922), Pseudomonas aeruginosa (ATCC 27853), Salmonella enteric serovar Typhimurium (ATCC 14028) and Staphylococcus aureus (ATCC 29213) were used to assess the antimicrobial activity of AvBD analogues. All bacterial strains were grown on Luria-Bertani (LB) agar plates or Trypticase Soy Agar with 5% Sheep Blood (TSA, Thermo Fisher Scientific) plates at 37 °C. Antimicrobial activity was determined by a colony counting assay. In brief, bacteria were resuspended in 100-fold diluted Mueller Hinton II broth with 5 mM NaCl (minimal growth medium) to obtain a final bacterial concentration of 2 × 10^5 CFU/ml. Twenty-five microliters of bacterial suspension and 25 μl of AvBD analogue solution were mixed in the wells of a 96-well polypropylene microtiter plate (Nunc™, Thermo Fisher Scientific). The final peptide concentrations were 2, 4, 8, 16, 32, 64 and 128 μg/ml. The minimal growth medium without AvBD peptide was included as a negative control. The bacterial-peptide mixtures were incubated at 37 °C for 2 h, ten-fold serially diluted and plated on LB agar plates. The numbers of bacteria colonies were enumerated after 16 h of incubation at 37 °C. Antimicrobial activity was expressed as percent of killing using the following formula: (CFUcontrol - CFUtreated) / CFUcontrol × 100%. To assess the resistance of AvBD analogues to sodium chloride (NaCl), antimicrobial assays were carried out in the presence of 5 mM, 50 mM, 100 mM or 150 mM NaCl. All assays were performed in triplicate.

[3] = system: Salmonella enteric serovar Typhimurium (ATCC 14028); assay type: cell-based; conditions: ATCC 14028, 2 h
Experimental: as §1

[4] = system: Pseudomonas aeruginosa (ATCC 27853); assay type: cell-based; conditions: ATCC 27853, 2 h
Experimental: as §1

[5] = system: Staphylococcus aureus (ATCC 29213); assay type: cell-based; conditions: ATCC 29213, 2 h
Experimental: as §1

[6] = system: S. Typhimurium (ATCC 14028); assay type: cell-based, Salmonella enteric serovar Typhimurium
Experimental: (§2) The minimum inhibitory concentrations (MIC) of AvBDs were determined according to the guidelines of the Clinical and Laboratory Standards Institute (CLSI). The Muller Hinton II broth used in standard MIC assays contained 20–25 mg/L of calcium and 10–12.5 mg/L of magnesium. Modified MICs of AvBDs were also determined under a low-salt and low-nutrient condition by using 100× diluted Muller Hinton II broth containing 0.2 mg/L of calcium, 0.1 mg/L magnesium and 5 mM (292 mg/L) NaCl. MIC obtained under the low-salt and low-nutrient condition was referred to as MIC-ls. AvBD peptides were two-fold serially diluted (2 to 256 μg/ml) in a 96-well microtiter plate. An equal volume (μl) of bacterial suspension was added to each well of the plate. The final bacterial concentration in the wells was 5 × 10^5 CFU/ml. […] To complement MIC-ls assays, the minimum bactericidal concentrations (MBC) were evaluated by sub-culturing the contents of the first two clear wells obtained in the MIC-ls assay onto LB agar plates. All assays were conducted in triplicate. The lowest peptide concentration inhibiting more than 99% of bacterial growth was defined as MBC-ls. AvBD analogues were regarded as bactericidal if the MBC was no more than four times the MIC [29].

[7] = system: P. aeruginosa (ATCC 27853); assay type: cell-based, Pseudomonas aeruginosa
Experimental: as §2

[8] = system: S. aureus (ATCC 29213); assay type: cell-based, Staphylococcus aureus
Experimental: as §2

[9] = system: E. coli (ATCC 25922); assay type: cell-based, Escherichia coli
Experimental: as §2

[10] = system: CHO-K1 cells; experiment: MTT cell cytotoxicity assay; assay type: cell-based; conditions: 256 μg/ml; 4, 12, 24 and 48 hours; Student t-test treated vs untreated; n = 3; Figure S1
Experimental: (§3) Chicken macrophage cell lines MQ-NCSU and HD11 were maintained in RPMI-1640 media supplemented with 10% fetal bovine serum (FBS), 2% chicken serum, 100 U/ml penicillin and 100 μg/ml streptomycin (Sigma-Aldrich) at 37 °C in humidified air with 5% CO2. CHO-K1 cells were cultured in the same media without 2% chicken serum. For CCR2-transfected CHO-K1 cells, the medium was supplemented with 500 μg/ml G418 was added (Sigma-Aldrich). Murine immature dendritic cell line JAWSII (ATCC CRL-11904™) was cultured in Alpha minimum essential medium containing 4 mM L-glutamine, 1 mM sodium pyruvate, 5 ng/ml murine Granulocyte macrophage colony-stimulating factor (GM-CSF), 20% FBS, 100 U/ml penicillin and 100 μg/ml streptomycin at 37 °C in humidified air with 5% CO2. The cell cytotoxicity was determined using the MTT (3-(4, 5-dimethylthiazol-2-yl)-2, 5-diphenyltetrazolium bromide metabolic activity assay according to the manufacturer’s instruction (Thermo Fisher Scientific). Briefly, cells (5 × 10^3 cells/well) were seeded in 96-well tissue culture plates, incubated overnight and treated with AvBDs at concentrations of 4, 16, 64 and 256 μg/ml for 4, 12, 24 and 48 h at 37 °C. After treatment, 20 μl of 12 mM MTT solution was added to each well. The plate was incubated for 4 h and read at 540 nm. Viability was expressed as percentage of viable cells relative to the untreated control. The experiments were performed in triplicate.

[11] = system: JAWSII cells; experiment: MTT cell cytotoxicity assay; assay type: cell-based, murine; conditions: 256 μg/ml; 4, 12, 24 and 48 hours; Student t-test treated vs untreated; n = 3; Figure S1
Experimental: as §3, with “The experiments were performed in triplicate.” left out

[12] = system: HD11 cells; experiment: MTT cell cytotoxicity assay; assay type: cell-based, chicken; conditions: 256 μg/ml; 4, 12, 24 and 48 hours; Student t-test treated vs untreated; n = 3; Figure S1
Experimental: as §3

[13] = system: MQ-NCSU cells; experiment: MTT cell cytotoxicity assay; assay type: cell-based, chicken; conditions: 256 μg/ml; 4, 12, 24 and 48 hours; Student t-test treated vs untreated; n = 3; Figure S1
Experimental: as §3

[14] = system: avian and mammalian cell lines; conditions: previous findings; cited from earlier work
Experimental: Data on the highest peptide concentration (256 μg/ml) at various exposure times were presented in Additional file 1: Figure S1. The results were consistent with our previous findings that AvBD-6 and AvBD-12 were non-cytotoxic to avian and mammalian cell lines.

[15] = 100× diluted Muller Hinton II broth, 5 mM NaCl, 5 × 10^5 CFU/ml, 37 °C, 24 h, triplicate
[16] = CLSI, standard Muller Hinton II broth, 5 × 10^5 CFU/ml, 37 °C, 24 h, triplicate
[17] = sub-culture of clear MIC-ls wells on LB agar, lowest concentration inhibiting more than 99% of growth, triplicate

## GPRSANHKRGLARVGNANPGKYLAKYSFRPVILSSKPLSPTPTKT [AvBD-12A3]
[1]; migrated cells with peptide / with chemotactic buffer, n = 5
  chemotactic index (C.I.) for JAWSII cells: 3.74
[1]; relative to AvBD-12
  chemotactic activity for JAWSII cells, % of wild type: 56.6 % of wild type
[2]
  killing potency against E. coli retained at 150 mM NaCl: approximately 80%
  percent of killing of E. coli: 100%
[3]; 16 μg/ml
  percent of killing of S. Typhimurium: 93.9%
[3]; 32 μg/ml
  killing activity against S. Typhimurium retained at 150 mM NaCl: 30-60%
[4]; 16 μg/ml
  percent of killing of P. aeruginosa: 100%
[4]; 32 μg/ml
  killing potency against P. aeruginosa retained at 150 mM NaCl: approximately 80%
[5]; 16 μg/ml
  percent of killing of S. aureus: 91.7%
[5]; 64 μg/ml
  killing activity against S. aureus retained at 150 mM NaCl: 30-60%
[6]; ATCC 14028, 24 h
  MBC-ls S. Typhimurium (ATCC 14028): 64 µg/mL
  MIC S. Typhimurium (ATCC 14028): >256 µg/mL
  MIC-ls S. Typhimurium (ATCC 14028): 16 µg/mL
[7]; ATCC 27853, 24 h
  MBC-ls P. aeruginosa (ATCC 27853): 16 µg/mL
  MIC P. aeruginosa (ATCC 27853): >256 µg/mL
  MIC-ls P. aeruginosa (ATCC 27853): 8 µg/mL
[8]; ATCC 29213, 24 h
  MBC-ls S. aureus (ATCC 29213): 256 µg/mL
  MIC S. aureus (ATCC 29213): >256 µg/mL
  MIC-ls S. aureus (ATCC 29213): 128 µg/mL
[9]; ATCC 25922, 24 h
  MBC-ls E. coli (ATCC 25922): 16 µg/mL
  MIC E. coli (ATCC 25922): 128 µg/mL
  MIC-ls E. coli (ATCC 25922): 4 µg/mL
[10]
  metabolic activity (viability relative to untreated control), CHO-K1: No significant difference was found

## SPIHACRYQRGVCIPGPCRWPYYRVGSCGSGLKSCCVRNRWA (disulfide 6-35, 13-28, 18-36) [AvBD-6, avian β-defensin-6, reference compound]
[11]
  metabolic activity (viability relative to untreated control), JAWSII: No significant difference was found
[6]; [15]
  MIC-ls S. Typhimurium (ATCC 14028): 16 µg/mL
[6]; [16]
  MIC S. Typhimurium (ATCC 14028): >256 µg/mL
[6]; [17]
  MBC-ls S. Typhimurium (ATCC 14028): 64 µg/mL
[7]; [15]
  MIC-ls P. aeruginosa (ATCC 27853): 64 µg/mL
[7]; [16]
  MIC P. aeruginosa (ATCC 27853): >256 µg/mL
[7]; [17]
  MBC-ls P. aeruginosa (ATCC 27853): 128 µg/mL
[8]; [15]
  MIC-ls S. aureus (ATCC 29213): 256 µg/mL
[8]; [16]
  MIC S. aureus (ATCC 29213): 256 µg/mL
[8]; [17]
  MBC-ls S. aureus (ATCC 29213): 256 µg/mL
[12]
  metabolic activity (viability relative to untreated control), HD11: No significant difference was found
[13]
  metabolic activity (viability relative to untreated control), MQ-NCSU: No significant difference was found
[9]; [15]
  MIC-ls E. coli (ATCC 25922): 4 µg/mL
[9]; [16]
  MIC E. coli (ATCC 25922): 128 µg/mL
[9]; [17]
  MBC-ls E. coli (ATCC 25922): 16 µg/mL
[14]
  cytotoxicity to avian and mammalian cell lines: non-cytotoxic
[10]
  metabolic activity (viability relative to untreated control), CHO-K1: No significant difference was found
